Test results: PMC9264404 (Toxicology and applied pharmacology, 2021)
Like-named read-outs stand apart in the source and are kept apart here.

Assays:
[1] = cited from earlier work
[2] = test system: mice; conditions: cited from earlier work
[3] = Pharmacokinetics in mice after oral gavage of 15 mg/kg DBC; type: in vivo, female B6129SF1/J mice
[4] = test system: hepatic microsomes of humans; conditions: DBC metabolism, human hepatic microsomes, MM model; cited from earlier work
[5] = test system: hepatic microsomes of mice; conditions: cited from earlier work
[6] = Pharmacokinetics in human volunteers after oral microdose of 29 ng [14C]-DBC; type: in vivo
[7] = average of human volunteers, 29 ng DBC oral
[8] = DBC metabolism, mouse hepatic microsomes, MM model

## c1ccc2c(c1)cc1ccc3cccc4c5ccccc5c2c1c34 [DBC, dibenzo[def,p]chrysene]
[1]; [7]
  Peak concentration in blood: 74.8 fM
  time of peak concentration in blood: around 1 hr
[1]; volunteer V5, oral dose 25.2 ng
  Eliminated Total (sum of all DBC metabolites excreted in urine): 0.532 ng 14C-DBCeq
[1]; volunteer V6, oral dose 29.8 ng
  Eliminated Total (sum of all DBC metabolites excreted in urine): 0.441 ng 14C-DBCeq
[1]; volunteer V8, oral dose 23.9 ng
  Eliminated Total (sum of all DBC metabolites excreted in urine): 0.285 ng 14C-DBCeq
[1]; volunteer V9, oral dose 28.5 ng
  Eliminated Total (sum of all DBC metabolites excreted in urine): 0.200 ng 14C-DBCeq
[1]; volunteer V10, oral dose 25.6 ng
  Eliminated Total (sum of all DBC metabolites excreted in urine): 0.494 ng 14C-DBCeq
[1]; volunteer V13, oral dose 28.5 ng
  Eliminated Total (sum of all DBC metabolites excreted in urine): 0.263 ng 14C-DBCeq
[1]; volunteers 8 and 9 (both), 29 ng DBC oral
  Peak concentration in blood: ~ 100 fM
[1]; volunteers 8 and 9, 29 ng DBC oral
  time of peak concentration in blood: 1 to 2 h
[2]; B6129F1/J mice, offspring of mothers exposed to DBC
  transplacental carcinogenicity: cause T-cell lymphoma, lung adenoma and liver lesions in offspring
[2]
  potency in producing lung adenomas relative to benzo[a]pyrene (B[a]P): 100 times
[2]; mice exposed intraperitoneally
  tumors after intraperitoneal exposure: lung and liver cancer
[2]; mice, dermal exposure
  tumors after dermal exposure: cause skin tumors
[2]; mice, intramammary exposure
  tumors after intramammary exposure: promote mammary tumors
[3]; 15 mg/kg DBC oral
  Peak concentration in blood: around 3.5 μM
  concentration in blood at 48 hr post dosing: approximately 0.0075 μM
  levels detected in urine: trace levels
  time of peak concentration in blood: 3 to 5 h
[3]; 15 mg/kg oral, used as model parameter
  percent of administered dose absorbed (amount of dose recovered in urine): 0.311
[4]
  Km: 0.915 µM
  Vmax: 0.27 nmol/min/mg
[5]; [8]
  Km: 6.63 µM
  Vmax: 19.38 nmol/min/mg
[5]; after scaling to body weight to the ¾ power
  DBC metabolism rate, mice compared to humans: 3 fold
[6]; Average of volunteers, urine
  % Excreted: 1.39%
[6]; [7]
  peak concentration relative to peak DBC-11,12-diol concentration: 10 times
[6]; volunteer V5, urine
  % Excreted: 2.11%
[6]; volunteer V6, urine
  % Excreted: 1.48%
[6]; volunteer V8, urine
  % Excreted: 1.20%
[6]; volunteer V9, urine
  % Excreted: 0.70%
[6]; volunteer V10, urine
  % Excreted: 1.93%
[6]; volunteer V13, urine
  % Excreted: 0.92%

## Oc1c(O)c(O)c2c(cc3ccc4cccc5c6ccccc6c2c3c45)c1O [DBC-tetrols, dibenzo[def,p]chrysene-11,12,13,14-tetraol]
[3]; 15 mg/kg DBC oral, 0–16 hr collection interval
  mean amount in urine relative to conjugated DBC-11,12-diol: 98.9 times
